This passage reports IC50 results from patent publication US8293738B2, “Indazole inhibitors of kinase” (Abbott Laboratories, priority 2010, dated 2012).

The structures appear in SMILES notation.

Assay [1] addresses T1, Aurora A (Homo sapiens, UniProt O14965).
T1 sequence (O14965 1-403): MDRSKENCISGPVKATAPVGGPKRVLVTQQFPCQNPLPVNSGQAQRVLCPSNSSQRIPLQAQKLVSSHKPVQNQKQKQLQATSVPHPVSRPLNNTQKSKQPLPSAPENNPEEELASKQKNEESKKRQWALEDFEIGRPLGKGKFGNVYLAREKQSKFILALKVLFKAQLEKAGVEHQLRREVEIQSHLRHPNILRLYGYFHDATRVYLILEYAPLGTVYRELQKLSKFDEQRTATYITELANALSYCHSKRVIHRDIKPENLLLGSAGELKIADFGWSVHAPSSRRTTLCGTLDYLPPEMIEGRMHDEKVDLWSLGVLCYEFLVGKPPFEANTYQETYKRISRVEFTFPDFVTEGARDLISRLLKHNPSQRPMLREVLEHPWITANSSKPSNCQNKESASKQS
Kind of assay: Aurora A enzyme assay (time-resolved fluorescence, STK substrate-2). The following applies: 1 mM ATP, 1 hour. The assay is classed as biochemical. How it is done:
To determine Aurora A and C activity of representative compounds of the invention, Active Aurora A or C enzyme was incubated in wells of a 384 well plate with biotinylated STK substrate-2 (Upstate), 1 mM ATP, and various concentrations of inhibitors in a Hepes buffer, pH 7.4 containing MgCl2, sodium othrovanadate, and Triton X-100. After 1 hour, the reaction was stopped with EDTA and anti-phospho-STK antibody Europium Cryptate (Upstate) and SA-XL665 (Upstate) were added to detect the phosphopeptide. The amount of phosphorylation was determined by the time-resolved fluorescence ratio of signals at 665 nm and 615 nm. The IC50s were calculated by an exponential fit of the inhibition values with the inhibitor concentrations using Assay Explorer software.

The target of assay [2] is T2, Aurora B (Homo sapiens, UniProt Q96GD4).
T2 construct: Active Aurora B enzyme (recombinant residues 1-344)
Kind of assay: Aurora B enzyme assay (time-resolved fluorescence, histone H3 peptide). The assay is classed as biochemical. The following applies: 1 mM ATP, 1 hour. How it is done:
To determine Aurora B activity of representative compounds of the invention, Active Aurora B enzyme (recombinant residues 1-344) and INCENP (recombinant GST fusion protein (Upstate)) were incubated in wells of a 384 well plate with biotinylted histone H3 peptide residues 1-21 (Upstate), 1 mM ATP, and various concentrations of inhibitors in a HEPES buffer, pH 7.4 containing MgCl2, sodium othrovanadate, and Triton X-100. After 1 hour, the reaction was stopped with EDTA and anti-phospho-histone H3 Europium Cryptate (Cis-Bio) and SA-APC (Phycolink, Prozyme) were added to detect the phosphopeptide. The amount of phosphorylation was determined by the time-resolved fluorescence ratio of signals at 665 nm and 615 nm. The IC50's were calculated by an exponential fit of the inhibition values with the inhibitor concentrations using Assay Explorer software.

Assay [3] addresses T3, KDR (Homo sapiens, UniProt P35968). Kind of assay: KDR cell assay. The assay is classed as cell-based.
Target sequence in this assay (P35968 20-1356, species assumed): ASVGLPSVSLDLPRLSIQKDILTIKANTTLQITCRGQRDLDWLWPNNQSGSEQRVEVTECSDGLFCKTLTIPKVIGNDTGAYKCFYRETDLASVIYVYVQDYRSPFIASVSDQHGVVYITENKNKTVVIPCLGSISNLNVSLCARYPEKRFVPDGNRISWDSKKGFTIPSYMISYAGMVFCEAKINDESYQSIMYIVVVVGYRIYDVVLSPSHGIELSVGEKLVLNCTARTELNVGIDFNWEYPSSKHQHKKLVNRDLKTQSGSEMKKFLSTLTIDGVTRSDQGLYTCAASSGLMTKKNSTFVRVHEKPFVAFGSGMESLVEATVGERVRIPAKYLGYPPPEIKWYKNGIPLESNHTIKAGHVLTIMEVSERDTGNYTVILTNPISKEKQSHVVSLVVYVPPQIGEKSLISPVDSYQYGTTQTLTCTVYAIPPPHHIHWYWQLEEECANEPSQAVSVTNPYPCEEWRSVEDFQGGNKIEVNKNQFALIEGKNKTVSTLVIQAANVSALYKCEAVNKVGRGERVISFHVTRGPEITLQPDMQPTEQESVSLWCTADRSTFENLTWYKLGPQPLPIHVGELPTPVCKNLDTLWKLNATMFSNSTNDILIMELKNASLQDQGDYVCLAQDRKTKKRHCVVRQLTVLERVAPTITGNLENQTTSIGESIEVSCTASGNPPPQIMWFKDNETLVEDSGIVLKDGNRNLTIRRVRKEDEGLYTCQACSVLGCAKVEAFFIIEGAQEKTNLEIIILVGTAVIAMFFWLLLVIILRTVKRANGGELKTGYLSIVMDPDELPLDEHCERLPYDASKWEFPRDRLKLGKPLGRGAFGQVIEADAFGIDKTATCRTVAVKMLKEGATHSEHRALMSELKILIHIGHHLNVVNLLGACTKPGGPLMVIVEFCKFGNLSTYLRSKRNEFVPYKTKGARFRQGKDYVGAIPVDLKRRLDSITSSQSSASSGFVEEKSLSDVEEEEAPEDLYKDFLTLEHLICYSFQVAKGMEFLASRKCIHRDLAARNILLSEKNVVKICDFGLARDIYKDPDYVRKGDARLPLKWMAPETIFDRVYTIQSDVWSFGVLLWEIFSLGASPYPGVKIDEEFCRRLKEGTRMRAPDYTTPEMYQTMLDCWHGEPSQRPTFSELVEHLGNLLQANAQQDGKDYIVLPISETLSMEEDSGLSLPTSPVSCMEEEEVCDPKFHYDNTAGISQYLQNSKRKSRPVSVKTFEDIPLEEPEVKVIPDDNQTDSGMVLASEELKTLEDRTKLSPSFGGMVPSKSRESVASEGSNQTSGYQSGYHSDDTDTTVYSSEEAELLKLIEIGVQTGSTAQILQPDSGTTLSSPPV
For assay [4], the target named is T3, KDR. Kind of assay: KDR HTRF in vitro kinase assay. In kind it is biochemical. Set-up: purified enzyme (His6-KDR 789-1354, MW 63 kD). To be noted: 1 mM ATP, 60 minutes. How it is done:
To determine the activity of the various kinases, a homogenous time-resolved fluorescence (HTRF) in vitro kinase assay was used. (Mathis, G., HTRF(R) Technology. J Biomol Screen, 1999. 4(6): p. 309-314; Alfred J. Kolb, Paul V. Kaplita, David J. Hayes, Young-Whan Park, Christine Pernell, John S. Major and Gerard Mathis, Drug Discovery Today, 1998, 3, 333-342.)
For example for KDR, 7 ng/well of purified enzyme (His6-KDR 789-1354, MW 63 kD) was mixed with 0.5 μM N-biotinylated substrate (Biotin-Ahx-AEEEYFFLA-amide (SEQ. ID. 1)), various concentrations of inhibitor in reaction buffer (50 mM HEPES, pH 7.1, mM MgCl2, 2 mM MnCl2, 0.1% BSA and 1 mM DTT, […] final volume), ATP (1 mM final conc.) in a black 384-well plate. After 60 minutes incubation at room temperature, the reaction was quenched by addition of a buffered EDTA solution (final approximate concentrations: 30 mM EDTA, 0.1% BSA, 0.1% Triton X-100 and 0.24M KF) and a solution of revelation agents (to give 0.084 ng/well streptavidin-XL-665 (Cis-Bio) and 6.5 ng/well antiphsophotyrosine mAb PT66-K Europium kryptate) was added to the reaction mixture. The quenched reaction was allowed to stand at room temperature for 3 hours and was then read in a time-resolved fluorescence detector (InVision, Perkin-Elmer) at 620 nm and 665 nm sequentially with excitation. The ratio between the signal of 620 nm and 665 nm was used in the calculation of the IC50.
In general terms: TR-FRET usually uses a lanthanide donor and a delayed reading to cut background.
Target sequence in this assay (P35968 789-1354): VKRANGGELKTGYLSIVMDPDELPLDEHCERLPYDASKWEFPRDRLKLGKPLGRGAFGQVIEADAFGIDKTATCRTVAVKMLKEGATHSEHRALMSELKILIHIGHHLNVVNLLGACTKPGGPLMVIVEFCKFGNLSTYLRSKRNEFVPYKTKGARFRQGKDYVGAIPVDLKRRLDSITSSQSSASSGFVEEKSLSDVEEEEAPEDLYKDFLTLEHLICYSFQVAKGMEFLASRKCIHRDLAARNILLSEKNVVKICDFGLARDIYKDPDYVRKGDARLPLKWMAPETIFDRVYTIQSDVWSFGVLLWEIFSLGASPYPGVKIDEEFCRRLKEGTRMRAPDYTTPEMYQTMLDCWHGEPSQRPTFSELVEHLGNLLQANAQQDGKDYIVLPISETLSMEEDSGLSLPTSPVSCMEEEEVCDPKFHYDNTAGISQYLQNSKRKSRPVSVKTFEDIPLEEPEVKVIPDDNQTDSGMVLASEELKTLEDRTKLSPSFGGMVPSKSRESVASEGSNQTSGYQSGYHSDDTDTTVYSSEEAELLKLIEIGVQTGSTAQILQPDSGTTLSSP

The test system of assay [5] is H1299 cells (Human Non-Small Cell Lung Carcinoma). Kind of assay: Induction of polyploidy in H1299 cells, high content analysis. The following applies: NCI-H1299 cells, 48 hours, polyploid = nuclear area >750μ2, read-out: Polyploid HCA IC50. The assay is classed as cell-based. How it is done:
To determine the induction of polyploidy in H1299 cells (Human Non-Small Cell Lung Carcinoma), NCI-H1299 were seeded (4K/well) into 96-well culture plates (tissue culture grade, black, flat-clear bottom) and incubated overnight to produce cell-to-plate adherance Inhibitors at varying concentrations were added into duplicate wells containing cells and culture media (RPMI 1640, 10% fetal calf serum) and incubated at 37 C for 48 hours. The plates were then washed with PBS and the adherent cells fixed by incubating with 3% formalin for 1 hour. After washing four times with PBS, the cells were then stained with Hoechst and subjected to fluorescent (3601/460e) microscopic high content analysis to determine the effect of inhibitors on nuclear size. Polyploid cells (>4N) were defined as those having nuclear area >750μ2. […]

T2 sequence (Q96GD4 whole entry, the tested form may be a part): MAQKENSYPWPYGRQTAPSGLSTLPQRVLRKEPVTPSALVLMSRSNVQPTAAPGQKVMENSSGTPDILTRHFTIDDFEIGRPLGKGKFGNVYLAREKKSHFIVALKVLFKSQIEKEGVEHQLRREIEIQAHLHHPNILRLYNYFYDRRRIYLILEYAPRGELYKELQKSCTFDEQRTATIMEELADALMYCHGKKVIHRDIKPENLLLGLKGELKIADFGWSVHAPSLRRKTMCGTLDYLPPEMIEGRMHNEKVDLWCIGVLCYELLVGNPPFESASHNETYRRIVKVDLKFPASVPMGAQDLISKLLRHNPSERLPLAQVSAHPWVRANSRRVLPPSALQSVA
T2 sequence (Q9NQS7 826-918 partner limits assumed): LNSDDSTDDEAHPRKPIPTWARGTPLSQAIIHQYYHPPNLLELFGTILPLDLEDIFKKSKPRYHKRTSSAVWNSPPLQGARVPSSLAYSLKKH

Turning to `Cc1cccc(NC(=O)Nc2ccc(-c3ccc4c(-c5cnn[nH]5)n[nH]c4c3)cc2)c1` [Example 3, N-(3-methylphenyl)-N′-{4-[3-(1H-1,2,3-triazol-5-yl)-1H-indazol-6-yl]phenyl}urea], the concentration for half-maximal inhibition (IC50) (commonly the midpoint of a concentration-inhibition curve) worked out at 2490 nM in assay [1]; 40.5 nM in assay [2]; 316 nM in assay [3]; 45 nM in assay [4]; 35 nM in assay [5].
In the case of `Cc1cccc(NC(=O)Nc2ccc(-c3ccc4c(-c5cnn(C)c5)n[nH]c4c3)cc2)c1` [Example 2, N-(3-methylphenyl)-N′-{4-[3-(1-methyl-1H-pyrazol-4-yl)-1H-indazol-6-yl]phenyl}urea], the IC50 in assay [1] is above 12500 nM; in assay [2], 17 nM; in assay [3] it was 46 nM; in assay [4], 27.4 nM; in assay [5], 6 nM.
On the same counts, the results for `Cn1cc(-c2n[nH]c3cc(-c4ccc(NC(=O)Nc5cccc(F)c5)cc4)ccc23)cn1` [Example 1, N-(3-fluorophenyl)-N′-{4-[3-(1-methyl-1H-pyrazol-4-yl)-1H-indazol-6-yl]phenyl}urea] are 371 nM, 19.2 nM, 87.1 nM, 54.9 nM and 1 nM.
As to `O=C(Nc1ccc(-c2ccc3c(-c4cnn[nH]4)n[nH]c3c2)cc1)Nc1cccc(F)c1` [Example 21, N-(3-fluorophenyl)-N′-{4-[3-(1H-1,2,3-triazol-5-yl)-1H-indazol-6-yl]phenyl}urea], the 50% inhibitory concentration (IC50) in assay [1] turned out to be 10200 nM; in assay [2] it was 58.3 nM; in assay [4], 154 nM; in assay [5], 128 nM.
Turning to `O=C(Nc1ccc(-c2ccc3c(-c4cnn(CCO)c4)n[nH]c3c2)cc1)Nc1cccc(F)c1` [Example 10, N-(3-fluorophenyl)-N′-(4-{3-[1-(2-hydroxyethyl)-1H-pyrazol-4-yl]-1H-indazol-6-yl}phenyl)urea], the half-maximal inhibitory concentration (IC50) in assay [1] amounted to 294 nM; in assay [2] it was 23.6 nM; in assay [3], 206 nM; in assay [4] it was 51.1 nM; in assay [5], 43 nM.
Consider `O=C(Nc1ccc(-c2ccc3c(-c4cnn(C5CCNCC5)c4)n[nH]c3c2)cc1)Nc1cccc(F)c1` [Example 16, N-(3-fluorophenyl)-N′-{4-[3-(1-piperidin-4-yl-1H-pyrazol-4-yl)-1H-indazol-6-yl]phenyl}urea], for which the IC50 in assay [1] was above 12500 nM; in assay [2] it was 10.9 nM; in assay [3], 135 nM; in assay [4], 44.6 nM; in assay [5], 216 nM.
Turning to `Cn1cc(-c2n[nH]c3cc(-c4cccc(CNC(=O)Nc5cccc(F)c5)c4)ccc23)cn1` [Example 29, N-(3-fluorophenyl)-N′-{3-[3-(1-methyl-1H-pyrazol-4-yl)-1H-indazol-6-yl]benzyl}urea], the concentration for half-maximal inhibition (IC50) in assay [1] worked out at 3340 nM; in assay [2] it was 25 nM; in assay [4], 137 nM; in assay [5], 113 nM.
Regarding `O=C(Nc1ccc(-c2ccc3c(-c4cn[nH]c4)n[nH]c3c2)cc1)Nc1cccc(F)c1` [Example 9, N-(3-fluorophenyl)-N′-{4-[3-(1H-pyrazol-4-yl)-1H-indazol-6-yl]phenyl}urea], the IC50 amounted to 221 nM in assay [1]; 32.7 nM in assay [2]; 300 nM in assay [3]; 76.3 nM in assay [4]; 14 nM in assay [5].
Regarding `Cc1cc(NC(=O)Nc2ccc(-c3ccc4c(-c5cnn(C)c5)n[nH]c4c3)cc2)no1` [Example 30, N-(5-methylisoxazol-3-yl)-N′-{4-[3-(1-methyl-1H-pyrazol-4-yl)-1H-indazol-6-yl]phenyl}urea], the IC50 in assay [1] came to 299 nM; in assay [2], 10.3 nM; in assay [3], 123 nM; in assay [4], 32.2 nM; in assay [5], 1 nM.
For `Cn1cc(-c2n[nH]c3cc(-c4ccc(NC(=O)Nc5cccc(Cl)c5)cc4)ccc23)cn1` [Example 22, N-(3-chlorophenyl)-N′-{4-[3-(1-methyl-1H-pyrazol-4-yl)-1H-indazol-6-yl]phenyl}urea], the concentration for half-maximal inhibition (IC50) in assay [1] was found to be 267 nM; in assay [2], 32.5 nM; in assay [3], 47.5 nM; in assay [4], 14.8 nM; in assay [5], 1 nM.
With `Cn1cc(-c2n[nH]c3cc(-c4ccc(NC(=O)Nc5ccc(C(F)(F)F)cc5)cc4)ccc23)cn1` [Example 19, N-{4-[3-(1-methyl-1H-pyrazol-4-yl)-1H-indazol-6-yl]phenyl}-N′-[4-(trifluoromethyl)phenyl]urea], the IC50 in assay [1] is 10800 nM; in assay [2], 108 nM; in assay [3], 216 nM; in assay [4], 45.1 nM.
As for `Cn1cc(-c2n[nH]c3cc(-c4ccc(NC(=O)Nc5ccc(Cl)cc5)cc4)ccc23)cn1` [Example 20, N-(4-chlorophenyl)-N′-{4-[3-(1-methyl-1H-pyrazol-4-yl)-1H-indazol-6-yl]phenyl}urea], the IC50 in assay [1] was above 12500 nM; in assay [2] it was 24.7 nM; in assay [4], 122 nM; in assay [5], below 1 nM.
For the compound `Cn1cc(-c2n[nH]c3cc(-c4ccc(NC(=O)Nc5ccccc5Cl)cc4)ccc23)cn1` [Example 23, N-(2-chlorophenyl)-N′-{4-[3-(1-methyl-1H-pyrazol-4-yl)-1H-indazol-6-yl]phenyl}urea], the half-maximal inhibitory concentration (IC50) in assay [1] turned out to be 246 nM; in assay [2], 24.9 nM; in assay [3], 355 nM; in assay [4], 80.7 nM; in assay [5] it was 10 nM.
In the case of `Cn1cc(-c2n[nH]c3cc(-c4ccc(NC(=O)Nc5ccccc5C(F)(F)F)cc4)ccc23)cn1` [Example 26, N-{4-[3-(1-methyl-1H-pyrazol-4-yl)-1H-indazol-6-yl]phenyl}-N′-[2-(trifluoromethyl)phenyl]urea], the IC50 in assay [1] is above 12500 nM; in assay [2] it was 62.3 nM; in assay [4] it was 325 nM; in assay [5], 13 nM.
Regarding `O=C(Nc1ccc(-c2ccc3c(-c4ccn[nH]4)n[nH]c3c2)cc1)Nc1cccc(F)c1` [Example 8, N-(3-fluorophenyl)-N′-{4-[3-(1H-pyrazol-5-yl)-1H-indazol-6-yl]phenyl}urea], the IC50 in assay [1] is 3400 nM; in assay [2] it was 23.3 nM; in assay [4], 525 nM; in assay [5], 12 nM.
